Reference: patent publication EP0355612B1, “Furylthiazole derivatives, processes for the preparation thereof and pharmaceutical composition comprising the same” (FUJISAWA PHARMACEUTICAL CO., LTD., priority 1988, dated 1990)

Assays:
H₂-receptor = biological target: T1, H₂-receptor (Cavia porcellus, UniProt P47747); test: Test B: H₂-receptor antagonism in isolated guinea-pig atrium; assay type: cell-based; conditions: test compound 1 x 10⁻⁶ g/ml; histamine (1 x 10⁻⁶ g/ml)-induced increase in beating rate, before and 30 minutes after dosing
T1 construct: from tissue; host or cells: isolated guinea-pig atrial strip
Experimental: Test B (H₂-receptor antagonism in isolated guinea-pig atrium):
The atrial strip isolated from guinea-pig was suspended under an initial tension 0.3 to 0.6 g in an organ bath containing Tyrode solution at 30°C, aerated 95%O₂-5%CO₂ gas. The beating rate and amplitude of contraction of the atrium were recorded by means of a transducer and a polygraph. Histamine (1 x 10⁻⁶ g/ml) was added to the bathing fluid and the increase in beating rate after dosing was measured. Addition of test compounds (1 x 10⁻⁶ g/ml) was made 30 minutes after washing out histamine. Inhibitory effect of test compound was calculated by comparing histamine-induced increases in beating rate before and 30 minutes after dosing with the test compounds.

male Sprague-Dawley rats = test: Test C: Inhibition of stress ulcer (restraint and water immersion); assay type: in vivo; conditions: mean area of ulcers vs control animals; test compound 32 mg/kg orally; seven hours immobilized in water bath at 22°C
Experimental: Test C (Inhibition of stress ulcer):
Five male Sprague-Dawley rats, aged 7 weeks and weighing about 200 g were used per group for the study on stress ulcer after the fast for 24 hours. Each animal was immobilized in a restrain cage and immersed to a level of the xiphoid in a water bath kept 22°C. Each of the test compounds (32 mg/kg) suspended in 0.1% methylcellulose solution was administered orally just before the immobilization. Seven hours later, the animals were sacrificed and their stomachs were removed. The stomach was then fixed with 2% formalin. The area of ulcers was measured for each animal, and percentage of inhibition was calculated by comparing the mean area of ulcers (mm²) in the test animals with that in the control animals.

[1] = tested on: lumen perfused stomach in anesthetized rats; test: Test D: Gastric secretion from lumen perfused stomach in anesthetized rats (histamine-stimulated); assay type: in vivo, Sprague-Dawley rats; conditions: maximal inhibition of acid output; histamine 3 mg/kg/hr intravenous infusion; test compound 1 mg/kg intravenously
Experimental: Test D (Gastric secretion from lumen perfused stomach in anesthetized rats):
Male Sprague-Dawley rats weighing about 250 g were used. Rats were deprived of food but allowed free access to water for 24 hours. The animals were anesthetized with 1.25 g/kg urethane intraperitoneally. The abdomen was opened and the gastric lumen was perfused with saline throughout the experiment. The perfusate was titrated by an autotitrator with 25 mM sodium hydroxide as a titrant. Gastric secretion was stimulated by intravenous infusion with histamine (3 mg/kg/hr). After reaching plateau, test compound (1 mg/kg) was given intravenously. Drug effect was expressed as maximal inhibition by acid output.

T1 sequence (P47747 whole entry): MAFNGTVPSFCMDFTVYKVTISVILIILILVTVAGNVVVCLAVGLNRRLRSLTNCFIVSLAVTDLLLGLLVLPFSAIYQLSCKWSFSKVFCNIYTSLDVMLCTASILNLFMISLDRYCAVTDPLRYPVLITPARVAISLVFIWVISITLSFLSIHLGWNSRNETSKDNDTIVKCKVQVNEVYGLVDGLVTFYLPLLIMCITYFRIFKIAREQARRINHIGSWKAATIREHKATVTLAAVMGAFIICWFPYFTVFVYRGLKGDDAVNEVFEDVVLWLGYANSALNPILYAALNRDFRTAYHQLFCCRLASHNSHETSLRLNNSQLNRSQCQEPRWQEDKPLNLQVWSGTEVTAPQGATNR

| H₂ Antagonism (%) (H₂-receptor) | Compound | Inhibition (%) (male Sprague-Dawley rats) | Inhibition (%) [1] |
| --- | --- | --- | --- |
| 90.7% | CNC(=NC#N)NCc1ccc(-c2csc(N=C(N)N)n2)o1 [Test Compound (b), 4-[5-(2-Cyano-3-methylguanidino)methylfuran-2-yl]-2-(diaminomethyleneamino)thiazole] |  |  |
| 89.1% | CNC(=O)NCc1ccc(-c2csc(N=C(N)N)n2)o1 [Test Compound (c)] |  |  |
|  | NC(N)=Nc1nc(-c2ccc(CC(N)=NS(N)(=O)=O)o2)cs1 [Test Compound (d), 4-[5-(2-Amino-2-aminosulfonyliminoethyl)furan-2-yl]-2-(diaminomethyleneamino)thiazole] | 86.6% | 99% |
